Data published in patent publication US20090181990A1 (priority 2007, published 2009).

Legend:
Type in all cases: physicochemical
[1] = Material kept outside at room temperature for 15 hrs (XRD, water content, HPLC purity); conditions: after room temperature
Procedure: (§1) X-ray diffraction data were acquired using a PANalyticalX′pert PRO X-ray diffractometer model.
(§2) The water content measurements were carried out using a METTLER TOLEDO Model: DL31Karl Fischer Titrator according to standard procedures.
(§3) Purity by HPLC was performed by Waters 2690 Seperations module.system.
The material was kept outside at room temperature for 15 hrs.

[2] = Amorphous pemetrexed disodium stability study (HPLC purity, moisture content, XRD on storage); parameters: key to HPLC: % chromatographic purity by HPLC area normalisation; conditions: for HPLC: in % (unit assumed)
Procedure: as §1
(§4) System description: Kα1=1.54060 A^0, voltage 45 kV, current 40 mA, Xray source: Cu.
(§5) Experiment parameters: pattern measured between 2θ=4° and 2θ=40° with 0.05° increments; count time was 0.5 second per increment.
as §2, §3
The samples were packed in double seal poly bags followed by Aluminium bag sealed under nitrogen with oxygen trapper and stored • at 2-8° C. for a period of six months • 25° C./60% relative humidity (RH) for a period of six months.
The purity of the sample was checked by HPLC and XRD was recorded for the samples stored under these conditions after 2 months and 6 months.
Inject 20 μl of test solution and calculate the chromatographic purity by area normalisation method.

[3] = Conservation of amorphous form under various storage conditions (XRD, moisture content)
Procedure: as §1, §4, §5, §2

[4] = Bulk and tapped density (tap density tester, USP)
Text: As referred to herein the term “bulk density” is the weight of the sample divided by its non packed volume and the term “tapped density” is the weight of the sample divided by its packed volume. The units of bulk density are grams (gm) per cubic centimeter (cc) or grams (gm) per milliliter (ml). A powder having low bulk density will be lightweight, fluffy and have greater surface area. A powder with high density will be much more compact and dense, exist as harder particles and will result in a more flowable product compared to powder with low bulk density. Bulk and tapped densities were measured using Electrolab ETD-1020 tap density tester (USP).

[5] = 40° C./75% relative humidity for 7 days, double polythene bags in a fiber drum
[6] = 80° C. for 7 days, open petriplate
[7] = Room temperature for 24 hours, open petriplate
[8] = Room temperature for 40 days, double polythene bags
[9] = 2-8° C. or 25° C./60% relative humidity, six months

Which results are given for `Nc1nc2[nH]cc(CCc3ccc(C(=O)NC(CCC(=O)[O-])C(=O)[O-])cc3)c2c(=O)[nH]1.[Na+].[Na+]` (stereo not shown) [Example 3, amorphous pemetrexed disodium]?
HPLC purity [1]: 99.66%; Water content [1]: 16%; X-ray diffraction (form) [1]: amorphous form is retained

For `Nc1nc2[nH]cc(CCc3ccc(C(=O)NC(CCC(=O)[O-])C(=O)[O-])cc3)c2c(=O)[nH]1.[Na+].[Na+]` (stereo not shown) [Amorphous Form of Pemetrexed Disodium, with Moisture Content] [listing 1 of 2 here], which “% Moisture Content” value ([2]; 2-8° C., 2 Months) is on record?
The value was 11.68%.

What about the “% Moisture Content” value ([2]; 2-8° C., 6 Months) of the same molecule?
Its value is 12.31%.

And the XRD ([2]; 2-8° C., 6 Months)?
The XRD was “Amorphous”.

What about the HPLC ([2]; 2-8° C., 6 Months) of the same molecule?
The HPLC was 99.59.

And the “% Moisture Content” value ([2]; 2-8° C., Initial)?
The value was 15.92%.

What about the HPLC ([2]; 2-8° C., Initial) of the same molecule?
The HPLC was 99.66.

What about the “% Moisture Content” value ([2]; 25° C. RH 60%, 2 Months) of the same molecule?
The value was 10.26%.

And the “% Moisture Content” value ([2]; 25° C. RH 60%, 6 Months)?
The value was 11.45%.

What about the HPLC ([2]; 25° C. RH 60%, 6 Months) of the same molecule?
The HPLC was 99.63.

And the “% Moisture Content” value ([2]; 25° C. RH 60%, Initial)?
The value was 15.92%.

What about the HPLC ([2]; 25° C. RH 60%, Initial) of the same molecule?
Its HPLC is 99.66.

Which results are given for `Nc1nc2[nH]cc(CCc3ccc(C(=O)NC(CCC(=O)[O-])C(=O)[O-])cc3)c2c(=O)[nH]1.[Na+].[Na+]` (stereo not shown) [Amorphous Form of Pemetrexed Disodium, with Moisture Content] [listing 2 of 2 here]?
% Moisture Content ([2]; 2-8° C., 2 Months): 8.96%; HPLC ([2]; 2-8° C., 2 Months): 99.72; % Moisture Content ([2]; 2-8° C., 6 Months): 9.39%; XRD ([2]; 2-8° C., 6 Months): Amorphous; HPLC ([2]; 2-8° C., 6 Months): 99.62; % Moisture Content ([2]; 2-8° C., Initial): 9.04%; XRD ([2]; 2-8° C., Initial): Amorphous; HPLC ([2]; 2-8° C., Initial): 99.68; % Moisture Content ([2]; 25° C. RH 60%, 2 Months): 8.39%; HPLC ([2]; 25° C. RH 60%, 2 Months): 99.72; % Moisture Content ([2]; 25° C. RH 60%, 6 Months): 8.85%; XRD ([2]; 25° C. RH 60%, 6 Months): Amorphous; HPLC ([2]; 25° C. RH 60%, 6 Months): 99.67; % Moisture Content ([2]; 25° C. RH 60%, Initial): 9.04%; XRD ([2]; 25° C. RH 60%, Initial): Amorphous; HPLC ([2]; 25° C. RH 60%, Initial): 99.68

For `Nc1nc2[nH]cc(CCc3ccc(C(=O)NC(CCC(=O)[O-])C(=O)[O-])cc3)c2c(=O)[nH]1.[Na+].[Na+]` (stereo not shown) [amorphous form of pemetrexed disodium, pemetrexed disodium], which “% Moisture Content after storage” value [3, 5] is on record?
The value was 18.27%.

And the XRD [3, 5]?
Its XRD is “Amorphous form”.

And the “% Moisture Content after storage” value [3, 6]?
The value was 6.24%.

What about the XRD [3, 6] of the same molecule?
The XRD was “Amorphous form”.

And the “% Moisture Content after storage” value [3, 7]?
The value was 20.03%.

What about the XRD [3, 7] of the same molecule?
Its XRD is “Amorphous form”.

And the “% Moisture Content after storage” value [3, 8]?
The value was 18.56.

What about the XRD [3, 8] of the same molecule?
Its XRD is “Amorphous form”.

And the “% Moisture Content Initial” value ([3]; before storage)?
The value was 5.48%.

What about the “amorphous form after storage (XRD)” value [2, 9] of the same molecule?
Its value is “amorphous form is retained”.

And the “impurity formation / chemical purity after storage (HPLC)” value [2, 9]?
Its value is “no significant formation of impurities”.

With `Nc1nc2[nH]cc(CCc3ccc(C(=O)NC(CCC(=O)[O-])C(=O)[O-])cc3)c2c(=O)[nH]1.[Na+].[Na+]` (stereo not shown) [Example 2, amorphous pemetrexed disodium] as the molecule, how does the Bulk density [4] read?
Its Bulk density is 0.226 gm/ml.

And the Tapped density [4]?
Its Tapped density is 0.369 gm/ml.
